Bounds are passed on as bounds.

The target in one experiment is T1, human recombinant HDAC1 (Homo sapiens, UniProt Q13547).
T1 construct: purchased Enzo Life Sciences, Inc. BML-SE456
The experiment can be described thus: In vitro HDAC enzyme activity inhibition assay, HDAC1 (HDAC Fluorimetric Drug Discovery Kit). The class given is biochemical. The note with it: human recombinant HDAC1, Fluor de Lys-SIRT1 substrate 10 μM, 30° C. for 60 minutes. The essentials:
(§1)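 Both HDAC1 and HDAC6 (human recombinant, 0.3 μg) tested identically: 10 μM fluorogenic Fluor de Lys-SIRT1 substrate, reaction 60 min at 30° C, developer added for 30 min. IC50 calculated from Ex 360/Em 460 signal over 5-fold serial dilutions.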

A further experiment concerns the target T2, human recombinant HDAC6 (Homo sapiens, UniProt Q9UBN7).
T2 construct: purchased Calbiochem Inc. 382180
T2 sequence (Q9UBN7 1-1215): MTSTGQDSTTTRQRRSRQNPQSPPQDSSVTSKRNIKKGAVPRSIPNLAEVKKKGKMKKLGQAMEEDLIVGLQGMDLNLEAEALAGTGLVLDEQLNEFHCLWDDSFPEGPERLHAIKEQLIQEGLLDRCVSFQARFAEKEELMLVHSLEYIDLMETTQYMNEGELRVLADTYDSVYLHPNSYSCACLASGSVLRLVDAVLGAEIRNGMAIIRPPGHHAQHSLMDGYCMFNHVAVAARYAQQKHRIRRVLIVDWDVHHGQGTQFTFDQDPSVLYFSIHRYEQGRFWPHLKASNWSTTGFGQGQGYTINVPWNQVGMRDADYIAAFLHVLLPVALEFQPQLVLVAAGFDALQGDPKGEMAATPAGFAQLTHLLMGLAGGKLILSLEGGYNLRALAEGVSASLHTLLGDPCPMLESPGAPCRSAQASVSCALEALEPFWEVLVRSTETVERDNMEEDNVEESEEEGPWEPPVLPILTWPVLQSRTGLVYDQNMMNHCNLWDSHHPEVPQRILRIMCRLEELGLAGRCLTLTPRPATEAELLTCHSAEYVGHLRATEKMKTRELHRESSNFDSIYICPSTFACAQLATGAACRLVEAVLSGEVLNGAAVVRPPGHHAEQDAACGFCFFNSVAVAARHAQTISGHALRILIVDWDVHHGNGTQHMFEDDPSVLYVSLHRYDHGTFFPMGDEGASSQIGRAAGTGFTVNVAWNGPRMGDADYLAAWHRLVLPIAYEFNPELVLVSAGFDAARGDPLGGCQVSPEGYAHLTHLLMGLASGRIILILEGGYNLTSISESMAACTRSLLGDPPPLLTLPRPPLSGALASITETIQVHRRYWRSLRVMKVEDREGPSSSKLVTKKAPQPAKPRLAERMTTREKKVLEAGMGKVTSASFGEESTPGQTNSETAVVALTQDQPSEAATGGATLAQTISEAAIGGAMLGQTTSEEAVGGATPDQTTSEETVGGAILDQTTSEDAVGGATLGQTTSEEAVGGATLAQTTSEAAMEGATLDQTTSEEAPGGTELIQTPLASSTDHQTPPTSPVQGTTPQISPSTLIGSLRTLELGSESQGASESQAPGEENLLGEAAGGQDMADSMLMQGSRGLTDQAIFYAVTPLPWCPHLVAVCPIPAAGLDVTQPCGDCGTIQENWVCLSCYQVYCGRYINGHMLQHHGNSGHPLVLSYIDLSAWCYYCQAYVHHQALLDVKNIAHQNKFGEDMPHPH
Nature of the experiment: In vitro HDAC enzyme activity inhibition assay, HDAC6 (HDAC Fluorimetric Drug Discovery Kit). In kind it is biochemical. Particulars: for HDAC6 Selectivity (fold): HDAC6 versus HDAC1; for IC50: human recombinant HDAC6, same protocol as the HDAC1 test. A digest of the protocol:
as §1

T1 sequence (Q13547 whole entry): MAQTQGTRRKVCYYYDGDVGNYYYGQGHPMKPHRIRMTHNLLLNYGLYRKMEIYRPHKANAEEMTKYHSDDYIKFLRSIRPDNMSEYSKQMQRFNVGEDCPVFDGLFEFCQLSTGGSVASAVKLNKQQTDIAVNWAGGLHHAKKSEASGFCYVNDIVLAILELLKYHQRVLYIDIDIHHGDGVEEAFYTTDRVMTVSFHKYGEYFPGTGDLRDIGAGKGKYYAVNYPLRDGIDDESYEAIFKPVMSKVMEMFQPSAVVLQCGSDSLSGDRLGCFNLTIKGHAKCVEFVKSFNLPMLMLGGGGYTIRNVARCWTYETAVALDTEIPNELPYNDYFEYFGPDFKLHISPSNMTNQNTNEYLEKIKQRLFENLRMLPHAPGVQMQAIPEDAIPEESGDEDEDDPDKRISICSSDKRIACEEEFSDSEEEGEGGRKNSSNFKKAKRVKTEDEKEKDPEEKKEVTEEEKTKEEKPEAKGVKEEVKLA

Regarding `O=C(CO)N1CCC(C(=O)N(Cc2cn3ccc(-c4nnc(C(F)F)o4)cc3n2)c2ccccc2)CC1` [Compound 4124, N-((7-(5-(difluoromethyl)-1,3,4-oxadiazol-2-yl)imidazo[1,2-a]pyridin-2-yl)methyl)-1-(2-hydroxyacetyl)-N-phenylpiperidine-4-carboxamide], the IC50 at human recombinant HDAC1 is greater than 50000 nM. Besides, on human recombinant HDAC6, the “HDAC6 Selectivity (fold)” value is recorded as 147 fold and the IC50 was found to be 341 nM.

As to `O=C(C1CCN(C2COC2)CC1)N(Cc1cn2ccc(-c3nnc(C(F)F)o3)cc2n1)c1ccccc1` [Compound 3783, N-((7-(5-(difluoromethyl)-1,3,4-oxadiazol-2-yl)imidazo[1,2-a]pyridin-2-yl)methyl)-1-(oxetan-3-yl)-N-phenylpiperidine-4-carboxamide], the values for the IC50 at human recombinant HDAC1 and at human recombinant HDAC6 were greater than 50000 nM and 71.8 nM, respectively. The “HDAC6 Selectivity (fold)” value at human recombinant HDAC6 turned out to be 696 fold.

`Fc1cccc(Cc2cn3ccc(-c4nnc(C(F)F)o4)cc3n2)c1` [Compound 3585, 2-(difluoromethyl)-5-(2-(3-fluorobenzyl)imidazo[1,2-a]pyridin-7-yl)-1,3,4-oxadiazole]: at human recombinant HDAC1, the IC50 was greater than 50000 nM. On human recombinant HDAC6, the “HDAC6 Selectivity (fold)” value was 386 fold and the IC50 is 130 nM.

`O=C(N1CCN(C2CC3(COC3)C2)CC1)N(Cc1cn2ccc(-c3nnc(C(F)F)o3)cc2n1)c1cccc(F)c1` [Compound 4621]: the IC50 on human recombinant HDAC1 was greater than 50000 nM. On human recombinant HDAC6, the “HDAC6 Selectivity (fold)” value is on record as 326 fold and the IC50 came out at 153 nM.

With `CS(=O)(=O)c1ccc(NCc2cn3ccc(-c4nnc(C(F)F)o4)cc3n2)cc1` [Compound 3674, N-((7-(5-(difluoromethyl)-1,3,4-oxadiazol-2-yl)imidazo[1,2-a]pyridin-2-yl)methyl)-4-(methylsulfonyl)aniline], the IC50 at human recombinant HDAC1 is greater than 50000 nM. At human recombinant HDAC6, the “HDAC6 Selectivity (fold)” value was 128 fold and the IC50 was 391 nM.

Regarding `CCC(=O)N1CCC(C(=O)N(Cc2cn3ccc(-c4nnc(C(F)F)o4)cc3n2)c2cccc(F)c2)CC1` [Compound 4147, N-((7-(5-(difluoromethyl)-1,3,4-oxadiazol-2-yl)imidazo[1,2-a]pyridin-2-yl)methyl)-N-(3-fluorophenyl)-1-propionylpiperidine-4-carboxamide], on human recombinant HDAC1, the IC50 was greater than 50000 nM. On human recombinant HDAC6, the “HDAC6 Selectivity (fold)” value was found to be 126 fold and the IC50 worked out at 396 nM.

Regarding `CN1CCC(C(=O)N(Cc2cn3ccc(-c4nnc(C(F)F)o4)cc3n2)c2ccccc2)CC1` [Compound 3782, N-((7-(5-(difluoromethyl)-1,3,4-oxadiazol-2-yl)imidazo[1,2-a]pyridin-2-yl)methyl)-1-methyl-N-phenylpiperidine-4-carboxamide], on human recombinant HDAC1, the IC50 was greater than 50000 nM. Further, on human recombinant HDAC6, the “HDAC6 Selectivity (fold)” value stood at 740 fold and the half-maximal inhibitory concentration (IC50) amounted to 67.6 nM.

Take `FC(F)c1nnc(-c2ccn3cc(CNc4cccnc4)nc3c2)o1` [Compound 3675, N-((7-(5-(difluoromethyl)-1,3,4-oxadiazol-2-yl)imidazo[1,2-a]pyridin-2-yl)methyl)pyridin-3-amine]: at human recombinant HDAC1, the IC50 was greater than 50000 nM. Further, at human recombinant HDAC6, the “HDAC6 Selectivity (fold)” value is on record as 401 fold and the IC50 was 125 nM.

`O=C(N1CCN(C2CCCCC2)CC1)N(Cc1cn2ccc(-c3nnc(C(F)F)o3)cc2n1)c1cccc(F)c1` [Compound 4089, 4-cyclohexyl-N-((7-(5-(difluoromethyl)-1,3,4-oxadiazol-2-yl)imidazo[1,2-a]pyridin-2-yl)methyl)-N-(3-fluorophenyl)piperazine-1-carboxamide]: the IC50 at human recombinant HDAC1 is greater than 50000 nM; at human recombinant HDAC6, 443 nM. Also, the “HDAC6 Selectivity (fold)” value at human recombinant HDAC6 is 113 fold.

`O=C(N1CCN(C(=O)C(F)(F)F)CC1)N(Cc1cn2ccc(-c3nnc(C(F)F)o3)cc2n1)c1ccccc1` [Compound 4044, N-((7-(5-(difluoromethyl)-1,3,4-oxadiazol-2-yl)imidazo[1,2-a]pyridin-2-yl)methyl)-N-phenyl-4-(2,2,2-trifluoroacetyl)piperazine-1-carboxamide]: the IC50 at human recombinant HDAC1 was greater than 50000 nM. Besides, at human recombinant HDAC6, the “HDAC6 Selectivity (fold)” value was found to be 384 fold and the IC50 was found to be 130 nM.

Turning to `CN(C)C(=O)N1CCC(C(=O)N(Cc2cn3ccc(-c4nnc(C(F)F)o4)cc3n2)c2cccc(F)c2)CC1` [Compound 4155, N4-((7-(5-(difluoromethyl)-1,3,4-oxadiazol-2-yl)imidazo[1,2-a]pyridin-2-yl)methyl)-N4-(3-fluorophenyl)-N1,N1-dimethylpiperidine-1,4-dicarboxamide], the IC50 at human recombinant HDAC1 was greater than 50000 nM; on human recombinant HDAC6 it was 352 nM. In addition, the “HDAC6 Selectivity (fold)” value at human recombinant HDAC6 worked out at 142 fold.

`Fc1cccc(NCc2cn3ccc(-c4nnc(C(F)F)o4)cc3n2)c1` [Compound 3670, N-((7-(5-(difluoromethyl)-1,3,4-oxadiazol-2-yl)imidazo[1,2-a]pyridin-2-yl)methyl)-3-fluoroaniline]: the IC50 on human recombinant HDAC1 was greater than 50000 nM. Also, at human recombinant HDAC6, the “HDAC6 Selectivity (fold)” value was 226 fold and the IC50 was 221 nM.

Take `O=C(N1CCN(c2ccccn2)CC1)N(Cc1cn2ccc(-c3nnc(C(F)F)o3)cc2n1)c1cccc(F)c1` [Compound 4100, N-((7-(5-(difluoromethyl)-1,3,4-oxadiazol-2-yl)imidazo[1,2-a]pyridin-2-yl)methyl)-N-(3-fluorophenyl)-4-(pyridin-2-yl)piperazine-1-carboxamide]: the IC50 at human recombinant HDAC1 was greater than 50000 nM. Further, at human recombinant HDAC6, the “HDAC6 Selectivity (fold)” value is reported as 107 fold and the IC50 turned out to be 468 nM.

`Fc1ccc(Cc2cn3ccc(-c4nnc(C(F)F)o4)cc3n2)cc1` [Compound 3586, 2-(difluoromethyl)-5-(2-(4-fluorobenzyl)imidazo[1,2-a]pyridin-7-yl)-1,3,4-oxadiazole]: the IC50 at human recombinant HDAC1 is greater than 50000 nM; at human recombinant HDAC6, 330 nM. In addition, on human recombinant HDAC6, the “HDAC6 Selectivity (fold)” value is 151 fold.

As for `FC(F)c1nnc(-c2ccn3cc(Cc4ccc5c(c4)OCO5)nc3c2)o1` [Compound 3596, 2-(2-(benzo[d][1,3]dioxol-5-ylmethyl)imidazo[1,2-a]pyridin-7-yl)-5-(difluoromethyl)-1,3,4-oxadiazole], at human recombinant HDAC1, the IC50 is greater than 50000 nM. Also, at human recombinant HDAC6, the “HDAC6 Selectivity (fold)” value turned out to be 160 fold and the IC50 worked out at 313 nM.

For the compound `O=C(C1CCN(C2CCOCC2)CC1)N(Cc1cn2ccc(-c3nnc(C(F)F)o3)cc2n1)c1cccc(F)c1` [Compound 4144, N-((7-(5-(difluoromethyl)-1,3,4-oxadiazol-2-yl)imidazo[1,2-a]pyridin-2-yl)methyl)-N-(3-fluorophenyl)-1-(tetrahydro-2H-pyran-4-yl)piperidine-4-carboxamide], the IC50 on human recombinant HDAC1 was greater than 50000 nM. For the same compound, on human recombinant HDAC6, the “HDAC6 Selectivity (fold)” value is given as 206 fold and the IC50 stood at 243 nM.

For `O=C(C1CCN(C2CCC(F)(F)CC2)CC1)N(Cc1cn2ccc(-c3nnc(C(F)F)o3)cc2n1)c1cccc(F)c1` [Compound 4145, 1-(4,4-difluorocyclohexyl)-N-((7-(5-(difluoromethyl)-1,3,4-oxadiazol-2-yl)imidazo[1,2-a]pyridin-2-yl)methyl)-N-(3-fluorophenyl)piperidine-4-carboxamide], the concentration for half-maximal inhibition (IC50) at human recombinant HDAC1 is greater than 50000 nM. In addition, at human recombinant HDAC6, the “HDAC6 Selectivity (fold)” value was determined as 217 fold and the IC50 stood at 230 nM.

Take `CC(CO)N1CC(C(=O)N(Cc2cn3ccc(-c4nnc(C(F)F)o4)cc3n2)c2cccc(F)c2)C1` (stereo not drawn) [Compound 4191, N-((7-(5-(difluoromethyl)-1,3,4-oxadiazol-2-yl)imidazo[1,2-a]pyridin-2-yl)methyl)-N-(3-fluorophenyl)-1-(1-hydroxypropan-2-yl) azetidine-3-carboxamide]: the IC50 was greater than 50000 nM on human recombinant HDAC1 and 134 nM at human recombinant HDAC6. Moreover, the “HDAC6 Selectivity (fold)” value at human recombinant HDAC6 is reported as 373 fold.

For orientation: IC50 means the concentration that gives 50% inhibition.

Values taken from patent US12522601B2, “1,3,4-oxadiazole derivative compounds as histone deacetylase 6 inhibitor, and the pharmaceutical composition comprising the same” (CHONG KUN DANG PHARMACEUTICAL CORP., priority 2020, dated 2026).
